Laboratory results reported in PubChem BioAssay (NCI).
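Assay format: 96-well plates, 48-hour exposure. TGI marks complete inhibition of growth.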

What was measured:
Test in all cases: inhibition of tumour cell growth, NCI panel, 48 h
[1] = test system: SF-295 CNS
[2] = test system: HOP-92 NSCLC
[3] = test system: MOLT-4 leukemia
[4] = test system: NCI-H522 lung
[5] = test system: SF-539 CNS
[6] = test system: SK-MEL-5 melanoma
[7] = test system: HL-60(TB) leukemia
[8] = test system: NCI/ADR-RES ovarian
[9] = test system: ACHN renal
[10] = test system: SK-MEL-2 melanoma
[11] = test system: HOP-62 NSCLC
[12] = test system: UACC-257 melanoma
[13] = test system: RPMI-8226 leukemia
[14] = test system: SK-MEL-28 melanoma
[15] = test system: 786-0 renal
[16] = test system: MDA-MB-231 breast
[17] = test system: KM12 colon
[18] = test system: MCF7 breast
[19] = test system: SW-620 colon
[20] = test system: LOX IMVI melanoma
[21] = test system: OVCAR-5 ovarian
[22] = test system: HT29 colon
[23] = test system: NCI-H226 lung
[24] = test system: HCC-2998 colon
[25] = test system: HCT-15 colon
[26] = test system: COLO 205 colon
[27] = test system: SK-OV-3 ovarian
[28] = test system: SNB-75 CNS
[29] = test system: PC-3 prostate
[30] = test system: OVCAR-8 ovarian
[31] = test system: A549 NSCLC
[32] = test system: IGROV1 ovarian
[33] = test system: OVCAR-3 ovarian
[34] = test system: SNB-19 CNS
[35] = test system: UACC-62 melanoma
[36] = test system: HCT-116 colon
[37] = test system: OVCAR-4 ovarian
[38] = test system: CCRF-CEM leukemia
[39] = test system: EKVX NSCLC
[40] = test system: NCI-H460 lung
[41] = test system: CAKI-1 renal
[42] = test system: SF-268 CNS
[43] = test system: MALME-3M melanoma
[44] = test system: MDA-MB-435
[45] = test system: K-562 leukemia
[46] = test system: SN12C renal
[47] = test system: TK-10 renal
[48] = test system: HS 578T breast
[49] = test system: T-47D breast
[50] = test system: BT-549 breast
[51] = test system: NCI-H23 lung
[52] = test system: A498 renal
[53] = test system: M14 melanoma
[54] = test system: UO-31 renal
[55] = test system: U251 CNS
[56] = test system: DU-145 prostate

Measured: TGI

COc1cc2nc(-c3cccs3)nc(N3CCN(c4ccccc4C(F)(F)F)CC3)c2cc1OC
> 100 µM: all assays above
